From patent US9724262B2, “Methods of diagnosing and treating neonatal reversion to fetal consciousness” (The Regents of the University of California, priority 2013, dated 2017)

What was measured:
healthy neonatal foal = assay: Neurobehavioural (NB) scoring of a healthy neonatal foal infused i.v. with allopregnanolone; type: in vivo, Quarter Horse
Description: A healthy neonatal 50 kg Quarter Horse colt from the research herd at the School of Veterinary Medicine, University of California, Davis was selected for the infusion. The foal was born from a healthy Quarter Horse mare with a normal gestational length without complications, and normal observed parturition except that the placental passage was prolonged. Although retention of the placenta for 7 h post birth is not considered normal by most standards, the placenta was evaluated and determined to be complete and normal. […] The foal was deemed healthy based upon complete physical and neurological examinations immediately post birth. […] Repeat physical and neurological examinations at age 6 h, immediately prior to infusion, were also normal.
(§1) Intravenous catheters were placed aseptically in the right jugular vein for sample collection and in the left jugular vein for infusion of allopregnanolone. Allopregnanolone (5 alpha-pregnan-3 alpha-ol-20-one; Steraloids Inc., Newport, R.I., USA) was dissolved in an ethanol-based solution to a total concentration of 9 mg/ml. Infused dose and concentration of allopregnanolone in this foal were determined based on concentrations reported in in vivo studies in the modulation of the HPA axis in male rats (Naert, et al., (2007) Psychoneuroendocrinology 32, 1062-1078). An initial bolus of 0.05 mg/kg bwt i.v. of allopregnanolone was given followed by a constant rate infusion (CRI) of 0.02 mg/kg bwt/min using an infusion pump. Based on clinical effects of the initial dosage, a second bolus of 0.1 mg/kg bwt i.v. was given after 5 min and followed by a CRI of 0.04 mg/kg bwt/min for 5 min. The infusion was discontinued for 30 min to allow observation of any neurobehavioural (NB) alterations, and then a final bolus of 0.2 mg/kg bwt i.v. was given.
Neurobehavioural alterations were recorded and graded through a NB scoring system developed by the authors for the assessment of foals with NMS (Table 2). From preliminary work, foals with NMS had scores>8 from a range of 0 (normal foal) to 20 (comatose with paroxysmal activity). Mentation was defined as: normal if the foal was alert and responsive; quiet to obtunded if the foal was apparently lethargic but responsive to external stimuli (e.g., touch, sound); stuporous if level of consciousness was decreased but responsive to painful stimuli (e.g. pinching skin with haemostats); and comatose if the foal lost consciousness and was unresponsive to any stimuli. Paroxysmal activity was defined as abnormal events such as seizures or seizure-like activity, rhythmic limb movements, tremors or paddling. The NB scores were calculated at 5 min intervals throughout the infusion period. Following the infusion, the foal was observed hourly for the first 6 h and then at 12 h intervals for 2 days.
For NB comparison, a second age-matched clinically healthy neonatal Quarter Horse colt was infused with 99.9% ethanol diluted with 0.9% saline to a final concentration of 5% ethanol without allopregnanolone. Infusion of this solution followed the same protocol (dosage [based on 5% ethanol] and rate) of administration as for the first foal. The study was approved by an Animal Care and Use protocol from University of California, Davis.

[1] = Plasma steroid and hormone concentrations (LC-MS) in the foal infused with allopregnanolone; type: in vivo, Quarter Horse
Description: as §1
Heparinised blood samples were collected at birth, age 6 h and at 15 min intervals during the infusion. Blood was immediately centrifuged following collection and plasma stored at −80° C. until analysed by liquid chromatography mass spectrometry (LC-MS) utilising on-line sample extraction by turbulent flow chromatography (TFC) and detection by select reaction monitoring (SRM) on a triple quadrupole mass spectrometer. […] Free concentrations of 34 steroids were monitored in one analytical method over a 24-min run time. Detection and quantitation was accomplished using 3 or more SRM transitions per compound for all compounds other than 17-hydroxy pregnenolone where single ion monitoring (SIM) was utilised. This method was validated and the following assessed for each analyte: linearity, limit of detection, limit of quantitation, accuracy, precision, matrix effects, extraction recovery and potential endogenous interferences. […]

[2] = age 6 ½ h, 15 minutes post initial infusion

SMILES: CC(=O)[C@H]1CC[C@H]2[C@@H]3CC[C@H]4C[C@H](O)CC[C@]4(C)[C@H]3CC[C@]12C [allopregnanolone, 5 alpha-pregnan-3 alpha-ol-20-one]
- Time after cessation of the infusion to signs of increased responsiveness (healthy neonatal foal; after cessation of the infusion): ≤ 8 min
- Neurobehavior score (healthy neonatal foal; age 6 ¼ h, bolus 0.05 mg/kg IV, CRI 0.02 mg/kg/min, score scale 0-20): 14
- Neurobehavior score (healthy neonatal foal; [2]): 8
- Neurobehavior score (healthy neonatal foal; age 6 ¾ h, bolus 0.2 mg/kg IV): 15
- NB score (healthy neonatal foal; by 15 min after cessation of the infusion or the final bolus, standing, mild obtundation): 9
- NB score (healthy neonatal foal; by 30 min after infusion, foal appeared normal): 0
- NB score (healthy neonatal foal; infusion of higher concentrations (0.1 and 0.2 mg/kg bwt), foal recumbent, stuporous, unresponsive): 16
- Long-term NB effects following the infusion (healthy neonatal foal; observed hourly for 6 h, then at 12 h intervals for 2 days): No long-term NB effects were observed
- Allopregnanolone plasma concentration ([1]; age 6 ¼ h, bolus 0.05 mg/kg IV, CRI 0.02 mg/kg/min): 478,909 pg/mL
- Allopregnanolone plasma concentration [1, 2]: 126,566 pg/mL
- Allopregnanolone plasma concentration ([1]; age 6 ¾ h, bolus 0.2 mg/kg IV): 466,208 pg/mL
